Experimental data reported in PubChem BioAssay (NCI).
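Briefly, cells in 96-well plates were exposed to five compound concentrations for 48 h, and endpoints were estimated by linear interpolation. Here, GI50 denotes the concentration required for 50% inhibition of growth. TGI: total growth inhibition.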 Starred links: 1 amine or outer side, 2 acyl side, 3 side chain; linkers in the order of their positions; H or OH if unused. Non-standard residues stand in square brackets, D forms with d. Residues, ends and D or L forms follow the SMILES beside them. *: point of attachment. X14 = C/C=C/CC(C)C(O)[C@H](N[*:1])C(=O)[*:2]; Decanoyl = CCCCCCCCCC(=O)*; Leu(ol) = CC(C)C[C@H](N)CO; Iva = CC[C@](C)(N)C(=O)O; Aib = CC(C)(N)C(=O)O

How the values were obtained:
Assay in all cases: NCI-60 cell line screen, 48 h
[1] = system: 786-0 renal
[2] = system: A498 renal
[3] = system: A549 NSCLC
[4] = system: ACHN renal
[5] = system: BT-549 breast
[6] = system: CAKI-1 renal
[7] = system: CCRF-CEM leukemia
[8] = system: COLO 205 colon
[9] = system: DU-145 prostate
[10] = system: EKVX NSCLC
[11] = system: HCC-2998 colon
[12] = system: HCT-116 colon
[13] = system: HCT-15 colon
[14] = system: HL-60(TB) leukemia
[15] = system: HOP-62 NSCLC
[16] = system: HOP-92 NSCLC
[17] = system: HS 578T breast
[18] = system: HT29 colon
[19] = system: IGROV1 ovarian
[20] = system: K-562 leukemia
[21] = system: KM12 colon
[22] = system: LOX IMVI melanoma
[23] = system: M14 melanoma
[24] = system: MALME-3M melanoma
[25] = system: MCF7 breast
[26] = system: MDA-MB-231 breast
[27] = system: MDA-MB-435
[28] = system: MOLT-4 leukemia
[29] = system: NCI-H226 lung
[30] = system: NCI-H23 lung
[31] = system: NCI-H460 lung
[32] = system: NCI-H522 lung
[33] = system: NCI/ADR-RES ovarian
[34] = system: OVCAR-3 ovarian
[35] = system: OVCAR-4 ovarian
[36] = system: OVCAR-5 ovarian
[37] = system: OVCAR-8 ovarian
[38] = system: PC-3 prostate
[39] = system: RPMI-8226 leukemia
[40] = system: RXF 393 renal
[41] = system: SF-268 CNS
[42] = system: SF-295 CNS
[43] = system: SF-539 CNS
[44] = system: SK-MEL-2 melanoma
[45] = system: SK-MEL-28 melanoma
[46] = system: SK-MEL-5 melanoma
[47] = system: SK-OV-3 ovarian
[48] = system: SN12C renal
[49] = system: SNB-19 CNS
[50] = system: SNB-75 CNS
[51] = system: SR leukemia
[52] = system: SW-620 colon
[53] = system: T-47D breast
[54] = system: TK-10 renal
[55] = system: U251 CNS
[56] = system: UACC-257 melanoma
[57] = system: UACC-62 melanoma
[58] = system: UO-31 renal

Cc1[nH]c(C(=O)Nc2ccc(S(=O)(=O)N3CCCCC3)cc2OCCOCCOCCOCCOCCOCCOCCOCCOCCOc2cc(S(=O)(=O)N3CCCCC3)ccc2NC(=O)c2[nH]c(C)c3c2CCCCC3=O)c2c1C(=O)CCCC2
GI50 [1]: 1690 nM | TGI [1]: > 100000 nM | GI50 [2]: 1210 nM | GI50 [3]: 2390 nM | TGI [3]: > 100000 nM | GI50 [4]: 17.4 µM | TGI [4]: > 100000 nM | GI50 [5]: 911 nM | TGI [5]: > 100000 nM | GI50 [6]: 841 nM | TGI [6]: > 100000 nM | GI50 [7]: 1290 nM | TGI [7]: > 100000 nM | GI50 [8]: 1170 nM | TGI [8]: > 100000 nM | GI50 [9]: 4990 nM | TGI [9]: > 100000 nM | GI50 [10]: 2970 nM | TGI [10]: > 100000 nM | GI50 [11]: 296 nM | TGI [11]: 1120 nM | GI50 [12]: 538 nM | TGI [12]: 4410 nM | GI50 [13]: 12.9 µM | TGI [13]: > 100000 nM | GI50 [14]: 108 nM | GI50 [15]: 1110 nM | TGI [15]: > 100 µM | GI50 [16]: 433 nM | TGI [16]: > 100000 nM | GI50 [17]: 375 nM | TGI [17]: > 21900 nM | GI50 [18]: 648 nM | TGI [18]: > 19800 nM | GI50 [19]: 480 nM | GI50 [20]: 435 nM | TGI [20]: > 100000 nM | GI50 [21]: 1680 nM | TGI [21]: > 100000 nM | GI50 [22]: 169 nM | TGI [22]: 639 nM | GI50 [23]: 1010 nM | TGI [23]: > 100000 nM | GI50 [24]: 909 nM | TGI [24]: > 23500 nM | GI50 [25]: 95 nM | TGI [25]: > 100000 nM | GI50 [26]: 776 nM | TGI [26]: > 100000 nM | GI50 [27]: 766 nM | TGI [27]: > 100000 nM | GI50 [28]: 861 nM | TGI [28]: > 32800 nM | GI50 [29]: 542 nM | TGI [29]: 8.73 µM | GI50 [30]: 2380 nM | TGI [30]: > 100 µM | GI50 [31]: 1770 nM | TGI [31]: > 100000 nM | GI50 [32]: 190 nM | TGI [32]: 1210 nM | GI50 [33]: > 100000 nM | TGI [33]: > 100000 nM | GI50 [34]: 483 nM | GI50 [35]: 909 nM | TGI [35]: > 29700 nM | GI50 [36]: 3260 nM | TGI [36]: > 100000 nM | GI50 [37]: 1670 nM | TGI [37]: > 100000 nM | GI50 [38]: 1090 nM | TGI [38]: > 100000 nM | GI50 [39]: 325 nM | GI50 [40]: 1260 nM | TGI [40]: > 100000 nM | GI50 [41]: 2290 nM | TGI [41]: > 100000 nM | GI50 [42]: 2830 nM | TGI [42]: > 100000 nM | GI50 [43]: 599 nM | TGI [43]: > 100000 nM | GI50 [44]: 768 nM | GI50 [45]: 1590 nM | TGI [45]: > 100000 nM | GI50 [46]: 3920 nM | TGI [46]: > 89800 nM | GI50 [47]: 286 nM | TGI [47]: 806 nM | GI50 [48]: 1480 nM | TGI [48]: > 100000 nM | GI50 [49]: 1020 nM | TGI [49]: > 100000 nM | GI50 [50]: 78.8 nM | TGI [50]: 1180 nM | GI50 [51]: 107 nM | TGI [51]: > 32500 nM | GI50 [52]: 2050 nM | TGI [52]: > 100000 nM | GI50 [53]: 489 nM | TGI [53]: > 100 µM | GI50 [54]: 2050 nM | TGI [54]: > 100000 nM | GI50 [55]: 1400 nM | TGI [55]: > 100000 nM | GI50 [56]: 944 nM | GI50 [57]: 461 nM | TGI [57]: 3710 nM | GI50 [58]: 4830 nM | TGI [58]: > 100000 nM

C/C=C/CC(C)C(O)[C@H](NC(=O)[C@@H]1CCCN1C(=O)C(C)(C)NC(=O)CCCCCCCCC)C(=O)N[C@@](C)(CC)C(=O)N[C@@H](CCC(N)=O)C(=O)N[C@H](CCC(N)=O)C(=O)NC(C)(C)C(=O)N[C@@](C)(CC)C(=O)N[C@@H](CCC(N)=O)C(=O)N[C@H](CC(C)C)C(=O)N[C@H](CO)CC(C)C (stereo partly drawn) (Decanoyl-[Aib]P[X14][Iva]Q[dQ][Aib][Iva]Q[dL][Leu(ol)])
GI50 [1]: 284 nM | TGI [1]: 1440 nM | GI50 [2]: 242 nM | TGI [2]: 721 nM | GI50 [3]: 95.6 nM | TGI [3]: 1160 nM | GI50 [4]: 0.0877 µM | TGI [4]: 1130 nM | GI50 [5]: 304 nM | TGI [5]: 829 nM | GI50 [6]: 206 nM | TGI [6]: 659 nM | GI50 [7]: 152 nM | TGI [7]: 1180 nM | GI50 [8]: 49 nM | TGI [8]: 187 nM | GI50 [9]: 318 nM | TGI [9]: 1530 nM | GI50 [10]: 173 nM | TGI [10]: 1430 nM | GI50 [11]: 107 nM | TGI [11]: 1600 nM | GI50 [12]: 87 nM | TGI [12]: 1200 nM | GI50 [13]: 0.297 µM | TGI [13]: 1270 nM | GI50 [14]: 29.1 nM | TGI [14]: 114 nM | TGI [16]: 83.6 nM | GI50 [17]: 297 nM | TGI [17]: 1720 nM | GI50 [18]: 97.4 nM | TGI [18]: 1350 nM | GI50 [19]: 406 nM | TGI [19]: 1750 nM | GI50 [20]: 41.8 nM | TGI [20]: 1090 nM | GI50 [21]: 75.2 nM | TGI [21]: 1170 nM | GI50 [22]: 164 nM | TGI [22]: 697 nM | GI50 [23]: 61.5 nM | TGI [23]: 1320 nM | GI50 [24]: 30.9 nM | TGI [24]: 643 nM | GI50 [25]: 59.4 nM | TGI [25]: 1160 nM | GI50 [26]: 274 nM | TGI [26]: 990 nM | GI50 [27]: 111 nM | TGI [27]: 1200 nM | GI50 [28]: 259 nM | TGI [28]: 1140 nM | GI50 [29]: 182 nM | TGI [29]: 1.48 µM | GI50 [31]: 94 nM | TGI [31]: 1150 nM | GI50 [32]: 55 nM | TGI [32]: 720 nM | GI50 [33]: 985 nM | TGI [33]: 2330 nM | GI50 [34]: 41.7 nM | TGI [34]: 1310 nM | GI50 [35]: 82.5 nM | TGI [35]: 1870 nM | GI50 [36]: 208 nM | TGI [36]: 1290 nM | GI50 [37]: 199 nM | TGI [37]: 1330 nM | GI50 [38]: 52.7 nM | TGI [38]: 1050 nM | GI50 [39]: 29.5 nM | TGI [39]: 140 nM | GI50 [40]: 259 nM | TGI [40]: 1260 nM | GI50 [41]: 281 nM | TGI [41]: 1360 nM | GI50 [42]: 48.8 nM | TGI [42]: 754 nM | GI50 [43]: 338 nM | TGI [43]: 1310 nM | GI50 [44]: 60.4 nM | TGI [44]: 688 nM | GI50 [45]: 62.7 nM | TGI [45]: 2000 nM | GI50 [46]: 40.7 nM | TGI [46]: 200 nM | GI50 [47]: 233 nM | TGI [47]: 873 nM | GI50 [48]: 211 nM | TGI [48]: 1110 nM | GI50 [49]: 134 nM | TGI [49]: 1350 nM | GI50 [50]: 174 nM | TGI [50]: 803 nM | GI50 [51]: 253 nM | TGI [51]: 943 nM | GI50 [52]: 89.2 nM | TGI [52]: 1330 nM | GI50 [54]: 67.5 nM | TGI [54]: 1530 nM | GI50 [55]: 54.8 nM | TGI [55]: 1200 nM | GI50 [56]: 62.1 nM | TGI [56]: 758 nM | GI50 [57]: 103 nM | TGI [57]: 1470 nM | GI50 [58]: 212 nM | TGI [58]: 1110 nM
